# Target: human metabotropic Glutamate 4 receptor (mGluR4) (Homo sapiens (Human), UniProt Q14833)
# Experiment: Assay A: in vitro testing of mGluR4 potency (glutamate-induced cAMP lowering, HTRF cAMP)
# Assay type: cell-based
# Settings: HEK293 cells overexpressing human mGluR4; 10 uM L-glutamic acid, 1 uM forskolin; compounds of the present invention
# Method in brief: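 HEK293 cells overexpressing human mGluR4 treated 30 min at room temperature with compound plus 10 uM L-glutamate, 1 uM forskolin, 0.5 mM IBMX, 0.1% BSA, 1% DMSO. cAMP read by HTRF (665/615 nm ratio), normalized to glutamate (100%) and no-glutamate (0%) controls as percent of control.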
# Chain of human metabotropic Glutamate 4 receptor (mGluR4) (Q14833 33-912): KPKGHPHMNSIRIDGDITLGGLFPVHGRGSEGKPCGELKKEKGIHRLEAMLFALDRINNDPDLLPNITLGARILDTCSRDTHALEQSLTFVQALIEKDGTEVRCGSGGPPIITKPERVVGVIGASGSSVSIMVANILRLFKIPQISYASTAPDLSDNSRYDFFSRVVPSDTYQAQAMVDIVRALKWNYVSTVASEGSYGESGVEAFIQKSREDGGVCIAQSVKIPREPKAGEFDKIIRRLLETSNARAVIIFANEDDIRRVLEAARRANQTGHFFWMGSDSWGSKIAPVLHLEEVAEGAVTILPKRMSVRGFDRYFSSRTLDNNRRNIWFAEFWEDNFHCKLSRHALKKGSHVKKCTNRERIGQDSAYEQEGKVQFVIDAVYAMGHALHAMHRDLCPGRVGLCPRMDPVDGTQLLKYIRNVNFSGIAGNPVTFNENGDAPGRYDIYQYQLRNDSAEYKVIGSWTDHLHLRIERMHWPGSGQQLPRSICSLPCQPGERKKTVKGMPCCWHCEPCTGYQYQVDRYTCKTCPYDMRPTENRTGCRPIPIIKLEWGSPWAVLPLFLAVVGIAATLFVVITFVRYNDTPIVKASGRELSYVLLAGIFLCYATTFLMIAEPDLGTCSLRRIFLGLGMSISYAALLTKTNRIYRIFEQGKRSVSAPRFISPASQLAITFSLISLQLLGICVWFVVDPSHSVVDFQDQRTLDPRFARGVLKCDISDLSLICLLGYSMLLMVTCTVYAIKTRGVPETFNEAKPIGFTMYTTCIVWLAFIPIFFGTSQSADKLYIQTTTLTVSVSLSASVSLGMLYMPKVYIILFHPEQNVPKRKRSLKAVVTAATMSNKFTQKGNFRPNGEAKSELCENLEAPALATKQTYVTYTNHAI
row,Structure (SMILES),IC50 [nM]
1,"O=C(N[C@@H](CC1CC1)c1nc2cc(Cl)ccc2n1C1CC1)c1cnc(C(F)F)cn1 [Example 117, N-[(1S)-1-(5-chloro-1-cyclopropyl-1H-1,3-benzodiazol-2-yl)-2-cyclopropylethyl]-5-(difluoromethyl)pyrazine-2-carboaxamide]",8
2,"O=C(N[C@@H](CC1CC1)c1nc2cc(F)c(F)cc2n1C1CC1)c1cnc(C(F)F)cn1 [Example 118, N-[(1S)-2-cyclopropyl-1-(1-cyclopropyl-5,6-difluoro-1H-1,3-benzodiazol-2-yl)ethyl]-5-(difluoromethyl)pyrazine-2-carboxamide]",14
3,"CO[C@H](C)[C@H](NC(=O)c1cnc(C)cn1)c1nc2cc(OC(F)(F)F)ccc2n1CCOC1CC1 [Example 119, N-[(1R,2R)-1-[1-(2-cyclopropoxyethyl)-5-(trifluoromethoxy)-1H-1,3-benzodiazol-2-yl]-2-methoxypropyl]-5-methylpyrazine-2-carboxamide]",1
4,"CO[C@H](C)[C@H](NC(=O)c1cnc(C)cn1)c1nc2cc(OC(F)(F)F)ccc2n1CCOC1CCC1 [Example 120, N-[(1R,2R)-1-[1-(2-cyclobutoxyethyl)-5-(trifluoromethoxy)-1H-1,3-benzodiazol-2-yl]-2-methoxypropyl]-5-methylpyrazine-2-carboxamide]",1
5,"COCCn1c([C@@H](NC(=O)c2cnc(C(F)F)cn2)[C@@H](C)OC)nc2cc(OC(F)(F)F)ccc21 [Example 121, 5-(difluoromethyl)-N-[(1R,2R)-2-methoxy-1-[1-(2-methoxyethyl)-5-(trifluoromethoxy)-1H-1,3-benzodiazol-2-yl]propyl]pyrazine-2-carboxamide]",1
6,"Cc1cnc(C(=O)N[C@H](c2nc3c(C4CC4)c(Br)ccc3n2C)C2CC2)cn1 [Example 122, N-[(S)-(5-bromo-4-cyclopropyl-1-methyl-1H-1,3-benzodiazol-2-yl)(cyclopropyl)methyl]-5-methylpyrazine-2-carboxamide]",1
7,"CO[C@H](C)[C@H](NC(=O)c1cnc(C)cn1)c1nc2cc(OC(F)(F)F)ccc2n1C(C)C [Example 123, N-[(1R,2R)-2-methoxy-1-[1-(propan-2-yl)-5-(trifluoromethoxy)-1H-1,3-benzodiazol-2-yl]propyl]-5-methylpyrazine-2-carboxamide]",3
8,"COCCn1c([C@@H](NC(=O)c2cnc(C(F)(F)F)cn2)[C@@H](C)OC)nc2cc(OC(F)(F)F)ccc21 [Example 124, N-[(1R,2R)-2-methoxy-1-[1-(2-methoxyethyl)-5-(trifluoromethoxy)-1H-1,3-benzodiazol-2-yl]propyl]-5-(trifluoromethyl)pyrazine-2-carboxamide]",4
9,"Cc1cnc(C(=O)N[C@@H](CC2CC2)c2nc3cc(Cl)ccc3n2CCOC(F)F)cn1 [Example 125, N-[(1S)-1-{5-chloro-1-[2-(difluoromethoxy)ethyl]-1H-1,3-benzodiazol-2-yl}-2-cyclopropylethyl]-5-methylpyrazine-2-carboxamide]",7
10,"COCCn1c([C@@H](NC(=O)c2cnc(C)cn2)C(C)(C)O)nc2cc(C(F)(F)F)ccc21 [Example 126, N-[(1R)-2-hydroxy-1-[1-(2-methoxyethyl)-5-(trifluoromethyl)-1H-1,3-benzodiazol-2-yl]-2-methylpropyl]-5-methylpyrazine-2-carboxamide]",14
11,"CCn1c([C@@H](NC(=O)c2cnc(C)cn2)C2CC(F)(F)C2)nc2cc(F)ccc21 [Example 127, N-[(S)-(3,3-difluorocyclobutyl)(1-ethyl-5-fluoro-1H-1,3-benzodiazol-2-yl)methyl]-5-methylpyrazine-2-carboxamide]",8
12,"Cc1cnc(C(=O)N[C@@H](CC2CC2)c2nc3cc(F)c(F)cc3n2CCOC(F)F)cn1 [Example 128, N-[(1S)-2-cyclopropyl-1-{1-[2-(difluoromethoxy)ethyl]-5,6-difluoro-1H-1,3-benzodiazol-2-y1}ethyl]-5-methylpyrazine-2-carboxamide]",8
13,"COC[C@@H](C)n1c([C@@H](NC(=O)c2cnc(C)cn2)[C@@H](C)OC)nc2cc(OC(F)(F)F)ccc21 [Example 129, N-[(1R,2R)-2-methoxy-1-{1-[(2R)-1-methoxypropan-2-yl]-5-(trifluoromethoxy)-1H-1,3-benzodiazol-2-yl}propyl]-5-methylpyrazine-2-carboxamide]",9
14,"COCCCn1c([C@@H](NC(=O)c2cnc(C)cn2)[C@@H](C)OC)nc2cc(OC(F)(F)F)ccc21 [Example 130, N-[(1R,2R)-2-methoxy-1-[1-(3-methoxypropyl)-5-(trifluoromethoxy)-1H-1,3-benzodiazol-2-yl]propyl]-5-methylpyrazine-2-carboxamide]",13
15,"CO[C@H](C)[C@H](NC(=O)c1cnc(C)cn1)c1nc2cc(OC(F)(F)F)ccc2n1C1CC1 [Example 131, N-[(1R,2R)-1-[1-cyclopropyl-5-(trifluoromethoxy)-1H-1,3-benzodiazol-2-yl]-2-methoxypropyl]-5-methylpyrazine-2-carboxamide]",14
16,"Cc1cnc(C(=O)N[C@H](c2nc3ccc(C(F)(F)F)cc3n2CC(F)F)C2CC2)cn1 [Example 138, N-[(S)-cyclopropyl[1-(2,2-difluoroethyl)-6-(trifluoromethyl)-1H-1,3-benzodiazol-2-yl]methyl]-5-methylpyrazine-2-carboxamide]",3
17,"CCn1c([C@@H](NC(=O)c2cnc(C)cn2)[C@@H]2CCOC2)nc2cc(C(F)(F)F)ccc21 [Example 140, N-[(S)-[1-ethyl-5-(trifluoromethyl)-1H-1,3-benzodiazol-2-yl][(3S)-oxolan-3-yl]methyl]-5-methylpyrazine-2-carboxamide]",12
18,"Cc1cnc(C(=O)N[C@H](c2nc3cc(C(F)(F)F)ccc3n2CC(F)F)[C@H]2CCOC2)cn1 [Example 142, N-[(S)-[1-(2,2-difluoroethyl)-5-(trifluoromethyl)-1H-1,3-benzodiazol-2-yl][(3R)-oxolan-3-yl]methyl]-5-methylpyrazine-2-carboxamide]",8
19,"CCn1c([C@@H](NC(=O)c2cnc(C)cn2)[C@H]2CCOC2)nc2cc(F)ccc21 [Example 144, N-[(S)-(1-ethyl-5-fluoro-1H-1,3-benzodiazol-2-yl)[(3R)-oxolan-3-yl]methyl]-5-methylpyrazine-2-carboxamide]",41
20,"Cc1cnc(C(=O)N[C@H](c2nc3ccc(C(F)(F)F)cc3n2CC(F)F)[C@@H]2CCOC2)cn1 [Example 145, N-[(S)-[1-(2,2-difluoroethyl)-6-(trifluoromethyl)-1H-1,3-benzodiazol-2-yl][(3S)-oxolan-3-yl]methyl]-5-methylpyrazine-2-carboxamide]",41
21,"CCn1c([C@@H](NC(=O)c2cnc(C)cn2)[C@]2(O)CCCOC2)nc2cc(C(F)(F)F)ccc21 [Example 149, N-[(R)-[1-ethyl-5-(trifluoromethyl)-1H-1,3-benzodiazol-2-yl][(3R)-3-hydroxyoxan-3-yl]methyl]-5-methylpyrazine-2-carboxamide]",3
22,"CCn1c([C@@H](NC(=O)c2cnc(C)cn2)[C@]2(O)CCCOC2)nc2cc(F)ccc21 [Example 150, N-[(R)-(1-ethyl-5-fluoro-1H-1,3-benzodiazol-2-yl)[(3R)-3-hydroxyoxan-3-yl]methyl]-5-methylpyrazine-2-carboxamide]",14
23,"Cc1cnc(C(=O)N[C@H](c2nc3cc(F)ccc3n2CC(F)F)[C@]2(O)CCCOC2)cn1 [Example 151, N-[(R)-[1-(2,2-difluoroethyl)-5-fluoro-1H-1,3-benzodiazol-2-yl][(3R)-3-hydroxyoxan-3-yl]methyl]-5-methylpyrazine-2-carboxamide]",58
24,"CCn1c([C@@H](NC(=O)c2cnc(C)cn2)[C@]2(O)CCCOC2)nc2ccc(C(F)(F)F)cc21 [Example 152, N-[(R)-[1-ethyl-6-(trifluoromethyl)-1H-1,3-benzodiazol-2-yl][(3R)-3-hydroxyoxan-3-yl]methyl]-5-methylpyrazine-2-carboxamide]",14
25,"CCn1c([C@@H](NC(=O)c2cnc(C)cn2)[C@]2(O)CCCOC2)nc2ccc(F)cc21 [Example 153, N-[(R)-(1-ethyl-6-fluoro-1H-1,3-benzodiazol-2-yl)[(3R)-3-hydroxyoxan-3-yl]methyl]-5-methylpyrazine-2-carboxamide]",30
26,"CCn1c([C@@H](NC(=O)c2cnc(C)cn2)[C@]2(O)CCOC2)nc2cc(Cl)ccc21 [Example 154, N-[(R)-(5-chloro-1-ethyl-1H-1,3-benzodiazol-2-yl)[(3R)-3-hydroxyoxolan-3-yl]methyl]-5-methylpyrazine-2-carboxamide]",84
27,"CCn1c([C@@H](NC(=O)c2cnc(C)cn2)[C@]2(O)CCOC2)nc2ccc(C(F)(F)F)cc21 [Example 155, N-[(R)-[1-ethyl-6-(trifluoromethyl)-1H-1,3-benzodiazol-2-yl][(3R)-3-hydroxyoxolan-3-yl]methyl]-5-methylpyrazine-2-carboxamide]",63
28,"CCn1c([C@@H](NC(=O)c2cnc(C)cn2)[C@]2(O)CCOC2)nc2cc(C(F)(F)F)ccc21 [Example 156, N-[(R)-[1-ethyl-5-(trifluoromethyl)-1H-1,3-benzodiazol-2-yl][(3R)-3-hydroxyoxolan-3-yl]methyl]-5-methylpyrazine-2-carboxamide]",39
29,"Cc1cnc(C(=O)N[C@H](c2nc3ccc(Cl)cc3n2CC(F)F)C2CC2)cn1 [Example 157, N-[(S)-[6-chloro-1-(2,2-difluoroethyl)-1H-1,3-benzodiazol-2-yl](cyclopropyl)methyl]-5-methylpyrazine-2-carboxamid]",6
30,"Cc1cnc(C(=O)N[C@H](c2nc3cc(Cl)ccc3n2CC(F)F)C2CC2)cn1 [Example 158, N-[(S)-[5-chloro-1-(2,2-difluoroethyl)-1H-1,3-benzodiazol-2-yl](cyclopropyl)methyl]-5-methylpyrazine-2-carboxamide]",3
